From ChEMBL document CHEMBL1141210, “Structure-based discovery of a new class of Hsp90 inhibitors” (Bioorg Med Chem Lett, 2005)

How the values were obtained:
Heat shock protein HSP90 = Heat shock protein HSP90 (Homo sapiens, UniProt P07900+P08238)
Description: Binding affinity to Hsp90 by fluorescent polarization assay

HCT-116 = experiment: Inhibition of cell proliferation in HCT116 human colon cancer cell line; assay type: functional
BT-474 = experiment: Inhibition of cell proliferation in BT474 human breast cancer cell line after 48 hr exposure; assay type: functional; conditions: BT-474, 48 h

IC50 (Heat shock protein HSP90) [µM]	Compound	GI50 (HCT-116) [µM]	GI50 (BT-474) [µM]
26.4	CC(C)(C)c1ccc(S(=O)(=O)Nc2ccc(O)c(-c3c(O)ccc4ccccc34)c2)cc1		
	O=S(=O)(Nc1ccc(O)c(-c2c(O)ccc3ccccc23)c1)c1cc(Cl)ccc1Cl	29	34.9
6.6	CCc1ccc(S(=O)(=O)Nc2ccc(O)c(-c3c(O)ccc4ccccc34)c2)cc1		
3.3	O=S(=O)(Nc1ccc(O)c(-c2c(O)ccc3ccccc23)c1)c1ccccc1		
6.1	O=S(=O)(Nc1ccc(O)c(-c2c(O)ccc3ccccc23)c1)c1ccc(Br)cc1		
	C[C@@H]1C[C@H]2O[C@@H]2/C=C\C=C\C(=O)Cc2c(Cl)c(O)cc(O)c2C(=O)O1 [RADICICOL]	0.13	
8.8	O=S(=O)(Nc1ccc(O)c(-c2c(O)ccc3ccccc23)c1)c1ccc(F)cc1		
	C=CCNC1=C2C[C@@H](C)C[C@H](OC)[C@H](O)[C@@H](C)/C=C(\C)[C@H](OC(N)=O)[C@@H](OC)/C=C\C=C(/C)C(=O)NC(=CC1=O)C2=O [TANESPIMYCIN]	0.16	
15.2	Cc1cc(C)c(S(=O)(=O)Nc2ccc(O)c(-c3c(O)ccc4ccccc34)c2)cc1C		

Compound	IC50 (Heat shock protein HSP90) [µM]	GI50 (HCT-116) [µM]	GI50 (BT-474) [µM]
O=S(=O)(Nc1ccc(O)c(-c2c(O)ccc3ccccc23)c1)c1ccc(Cl)cc1	2.2	27.8	
O=S(=O)(Nc1ccc(O)c(-c2c(O)ccc3ccccc23)c1)c1cccs1	0.6	59.8	
